Test results: US20040029129A1, “Identification of essential genes in microorganisms” (priority 2001, published 2004)
Converted amounts (≈) assume the structure as drawn.

Experiments:
[1] = tested on: Staphylococcus aureus cells containing antisense to the Beta subunit of DNA gyrase (S1M10000001F08); experiment: Antibiotic potency in cells with xylose-induced antisense to the Beta subunit of DNA gyrase; format: cell-based; settings: 12 mM xylose versus 0 mM xylose; FIG. 10
[2] = tested on: Staphylococcus aureus cells overexpressing a gene product required for proliferation; experiment: Growth of strains overexpressing a proliferation-required gene (XylT5 promoter) at elevated antibiotic concentrations; format: cell-based; settings: for resistance conferred by overexpression of the defB gene: defB (peptide deformylase) overexpressed, FIG. 16; for resistance conferred by overexpression of the fabF gene: fabF (β keto-acyl carrier protein synthase II) overexpressed, FIG. 17; for resistance conferred by overexpression of the fabI gene: fabI (enoyl-acyl carrier protein reductase) overexpressed, FIG. 14; for resistance conferred by overexpression of the folA gene: folA (dihydrofolate reductase) overexpressed, FIG. 15
[3] = tested on: mixture of nine S. aureus strains overexpressing fabF, defB, folA, fabI, ileS, fusA, gyrB, murA, rpoB; experiment: Selection of a strain overexpressing the target gene product from a mixture of nine overexpressing strains; format: cell-based; settings: folA gene; at least 60 colonies
[4] = tested on: overexpression of the fabI gene; experiment: Growth of cells overexpressing the fabI gene in the presence of antibiotics; format: cell-based; settings: FIG. 14
[5] = tested on: cells which overexpress the defB gene product; experiment: Growth of cells overexpressing the defB gene in the presence of antibiotics; format: cell-based; settings: FIG. 16
[6] = tested on: overexpression of the fabF gene (β keto-acyl carrier protein synthase); experiment: Growth of cells overexpressing the fabF gene in the presence of antibiotics; format: cell-based; settings: FIG. 17
[7] = tested on: cells which overexpress the folA gene product; experiment: Growth of cells overexpressing the folA gene in the presence of antibiotics; format: cell-based; settings: for resistance conferred by overexpression of the folA gene: FIG. 15
[8] = tested on: E. coli transformed with IPTG-inducible antisense clones; experiment: Cell-based assay using antisense complementary to genes encoding ribosomal proteins (antibiotic sensitivity with and without IPTG); settings: with IPTG versus without IPTG; for Sensitivity to antibiotic of cells transcribing antisense to protein synthesis genes: AS-rplL, AS-rplW, AS-rplL/J and other protein synthesis gene clones
[9] = tested on: Strains of Staphylococcus aureus containing plasmids encoding antisense nucleic acids; experiment: Selective disappearance of amplification products of strains underexpressing the antibiotic's target (mixed antisense strains); format: cell-based; settings: rich medium

With CCC[C@@H]1C[C@@H](C(=O)N[C@@H]([C@H]2O[C@H](SC)[C@H](O)[C@@H](O)[C@H]2O)[C@@H](C)O)N(C)C1 [Lincomycin] the “Potency in induced cells as compared to uninduced cells” value (“Potency … compared to uninduced cells” below) [1] was “not significantly different”.

With COc1cc(Cc2cnc(N)nc2N)cc(OC)c1OC [trimethoprim] the “resistance conferred by overexpression of the defB gene” value [2] was “did not confer resistance”, the “resistance conferred by overexpression of the fabF gene” value [2] was “did not confer resistance” and the “resistance conferred by overexpression of the fabI gene” value [2] was “did not confer resistance”. For the same compound, the “resistance conferred by overexpression of the folA gene” value [2] was “conferred resistance”, the “Plasmids from colonies which grew in the presence of the antibiotic that contained the target gene” value [3] was 81% and the “resistance conferred by overexpression of the fabI gene” value [4] was “does not confer resistance”. The “resistance conferred by overexpression of the defB gene” value [5] was “does not confer resistance”, the “resistance conferred by overexpression of the fabF gene” value [6] was “does not confer resistance” and the “Potency … compared to uninduced cells” value [1] was “not significantly different”. For the same compound, the “resistance conferred by overexpression of the folA gene” value [7] was “confers resistance” and the “growth of cells overexpressing the folA gene product in presence of antibiotic” value ([7]; at appropriate concentrations of inducer, FIG. 13) was “able to grow at elevated concentrations”.

With NC[C@H]1O[C@H](O[C@H]2[C@H](O)[C@@H](O[C@H]3O[C@H](CO)[C@@H](O)[C@H](N)[C@H]3O)[C@H](N)C[C@@H]2N)[C@H](N)C[C@@H]1O [Tobramycin] the “Potency … compared to uninduced cells” value [1] was “not significantly different”.

In the case of CC[C@H]1OC(=O)[C@H](C)[C@@H](O[C@H]2C[C@@](C)(OC)[C@@H](O)[C@H](C)O2)[C@H](C)[C@@H](O[C@@H]2O[C@H](C)C[C@H](N(C)C)[C@H]2O)[C@](C)(O)C[C@@H](C)C(=O)[C@H](C)[C@@H](O)[C@]1(C)O [Erythromycin], the “Sensitivity to antibiotic of cells transcribing antisense to genes not involved in protein synthesis” value ([8]; AS-atpB/E, AS-visC, AS-elaD, AS-yohH) was “do not” and the “Sensitivity to antibiotic of cells transcribing antisense to protein synthesis genes” value [8] was “increased sensitivity”.

With Oc1cc(Cl)ccc1Oc1ccc(Cl)cc1Cl [triclosan] the “resistance conferred by overexpression of the defB gene” value [2] was “did not confer resistance”, the “resistance conferred by overexpression of the fabF gene” value [2] was “did not confer resistance” and the “resistance conferred by overexpression of the fabI gene” value [2] was “conferred resistance”. For the same compound, the “resistance conferred by overexpression of the folA gene” value [2] was “did not confer resistance”, the “resistance conferred by overexpression of the fabI gene” value [4] was “confers resistance” and the “resistance conferred by overexpression of the defB gene” value [5] was “does not confer resistance”. For the same compound, the “resistance conferred by overexpression of the fabF gene” value [6] was “does not confer resistance” and the “resistance conferred by overexpression of the folA gene” value [7] was “does not confer resistance”.

For CCn1cc(C(=O)O)c(=O)c2ccc(C)nc21 [Nalidixic acid], the “Sensitivity to antibiotic of cells transcribing antisense to protein synthesis genes” value [8] was “does not show increased sensitivity”.

For C/C(=C\C(=O)OCCCCCCCCC(=O)O)C[C@@H]1OC[C@H](C[C@@H]2O[C@H]2[C@@H](C)[C@H](C)O)[C@@H](O)[C@H]1O [mupriocin], the “IC50 (middle concentration used)” value [9] was 8.6 µg/mL (≈ 17.2 µM).

In the case of C/C=C/C/C=C/CCC(=O)[C@H]1O[C@H]1C(N)=O [cerulenin], the “resistance conferred by overexpression of the defB gene” value [2] was “did not confer resistance”, the “resistance conferred by overexpression of the fabF gene” value [2] was “conferred resistance” and the “resistance conferred by overexpression of the fabI gene” value [2] was “did not confer resistance”. The “resistance conferred by overexpression of the folA gene” value [2] was “did not confer resistance”, the “resistance conferred by overexpression of the fabI gene” value [4] was “does not confer resistance” and the “resistance conferred by overexpression of the defB gene” value [5] was “does not confer resistance”. The IC50 ([9]; read-out: IC50 (middle concentration used)) was 9 µg/mL (≈ 40.3 µM), the “resistance conferred by overexpression of the fabF gene” value [6] was “conferred resistance” and the “resistance conferred by overexpression of the folA gene” value [7] was “does not confer resistance”.

With CO[C@@H]1[C@@H](OC(N)=O)[C@@H](O)[C@H](Oc2ccc3c(O)c(NC(=O)c4ccc(O)c(CC=C(C)C)c4)c(=O)oc3c2C)OC1(C)C [novobiocin] the “Potency … compared to uninduced cells” value [1] was “significantly different”.

In the case of CN[C@H](CC(C)C)C(=O)N[C@H]1C(=O)N[C@@H](CC(N)=O)C(=O)N[C@H]2C(=O)N[C@H]3C(=O)N[C@H](C(=O)N[C@H](C(=O)O)c4cc(O)cc(O)c4-c4cc3ccc4O)[C@H](O)c3ccc(c(Cl)c3)Oc3cc2cc(c3O[C@@H]2O[C@H](CO)[C@@H](O)[C@H](O)[C@H]2O[C@H]2C[C@](C)(N)[C@H](O)[C@H](C)O2)Oc2ccc(cc2Cl)[C@H]1O [Vancomycin], the “Potency … compared to uninduced cells” value [1] was “not significantly different”.

CO[C@@]1(NC(=O)Cc2cccs2)C(=O)N2C(C(=O)O)=C(COC(N)=O)CS[C@@H]21 [Cefoxitin] was tested, and the “Potency … compared to uninduced cells” value [1] was “not significantly different”.

CC(=O)O[C@H]1C[C@@]2(C)[C@@H](C[C@@H](O)[C@H]3[C@@]4(C)CC[C@@H](O)[C@@H](C)[C@@H]4CC[C@@]32C)/C1=C(\CCC=C(C)C)C(=O)O [Fusidic acid] was tested, and the “Potency … compared to uninduced cells” value [1] was “not significantly different”.

With CO/N=C(\C(=O)N[C@@H]1C(=O)N2C(C(=O)O)=C(COC(C)=O)CS[C@H]12)c1csc(N)n1 [Cefotaxime] the “Potency … compared to uninduced cells” value [1] was “not significantly different”.
